This passage reports Ka and ΔTm results from publication PMC11258614 (2024).

Experiment [1] relates to human c-Myc promoter G4 (DNA, G4) TGAGGGTGGGTAGGGTGGGTAA
Description: fluorescence titration of peptide with G4. Particulars: 30 mM sodium cacodylate pH 7.4, 0.5 mM EDTA, 25 °C, printed Ka in μM, Ka or Kd ambiguous.

The test system is the same in experiment [2]. Description: UV melting at 295 nm. The note with it: 30 mM sodium cacodylate pH 7.4, 0.5 mM EDTA, 4 μM DNA, DNA:peptide 1:50, derived from two Tm.

Where a SMILES comes first, the peptide text is derived from it.

As for `CC(C)C[C@H](NC(=O)[C@@H](N)CC(N)=O)C(=O)N[C@@H](CCC(=O)O)C(=O)N[C@@H](CCCCN)C(=O)N[C@@H](CCCCN)C(=O)N[C@@H](CCCCN)C(=O)N1CCC[C@H]1C(=O)NCC(=O)O` (H-NLEKKKPG-OH), the Ka in experiment [1] (100 mM K+) stood at 0.1277 ± 0.073 µM; in experiment [1] (100 mM Na+), 0.1369 ± 0.008 µM. In addition, the values for the ΔTm in experiment [2] (100 mM K+) and in experiment [2] (100 mM Na+) were 0.9 °C and 3.7 °C, respectively.

In general, ΔTm refers to the shift of the melting midpoint relative to a reference.
